This note sets out measurements from US4367339A, “Substituted N-nitroaniline compounds and inorganic and organic salts thereof useful for enhancing auxiliary branching, canopy flowering and crop yield of plant and as lodging inhibitors therefor” (priority 1980, dated 1983).

Molecules are shown by their SMILES. Where a name gives a salt, the structure may show the parent alone. Some results are limits rather than exact numbers.

The test system of assay [1] is soybean (Glycine max) Adelphia. Briefly: Dwarfing and stem stiffening of soybeans (plant height, greenhouse, foliar spray). Conditions: three weeks after spraying. The format is in vivo. The method, then:
(§1) In the following tests, test compounds are dissolved or dispersed in acetone-water (1:1) mixtures at the final concentration corresponding to the kg/ha rates indicated in the table below. The solution also contains 0.25% v/v colloidal BIOFILM® (a product of Colloidal Products Corp.) which is a mixture of alkyl aryl polyethoxyethanol, free and combined fatty acids, glycol ethers, dialkylbenzene carboxylate and 2-propanol.
(§2) The plant species used in these tests are barley (Hordeum vulgare), (Mexico) and soybean (Glycine max)Adelphia.
(§3) The solution or dispersion of the compound under test is sprayed at a rate of 747 l/ha with a moving nozzle along an overhead stationary track. The spray nozzle moves at a constant speed over the plants.
(§4) The plants are grown in plastic pots, and are well established at the time of treatment. The seedlings of barley are 10 to 20 cm in height, while the seedlings of soybeans are at the second to third trifoliate stage. Plants are watered prior to treatment and then sprayed to provide the kg/ha rate of test compound desired. After spraying the plants are placed on greenhouse benches and watered and fertilized in accordance with normal greenhouse procedures.
(§5) Three weeks after spraying the plants are measured and harvested. Harvesting is done at the boot stage. All treatments are replicated six times and comparisons are made against untreated controls. Data obtained are reported in Table VI below as percent reduction in plant height over untreated controls.

Assay [2] has as its system barley (Hordeum vulgare). The assay can be described thus: Dwarfing of barley (plant height, greenhouse, foliar spray). The conditions noted are these: three weeks after spraying. Type of assay: in vivo. On the procedure: as §1, §2, §3, §4, §5
The subject of assay [3] is soybeans (Glycine max) var. Adelphia. Briefly: Increasing flowering of plants (soybeans). Type of assay: in vivo, soybean (Glycine max). Conditions: three weeks after spraying. The method, then:
In the following tests seedling soybean plants growing in plastic cups are sprayed with aqueous-acetone solutions or dispersions of test compounds when they have reached the 2nd to 3rd trifoliate stage. Test solutions or dispersions are prepared with 0.25 v/v Colloidal BIOFILM® surfactant and sufficient test compound to provide the plants with 0.5, 0.25, 0.125 or 0.06 kg/ha of said compound when the test solutions are sprayed on said plants from an overhead sprayer delivering 747 l/ha of solution.
After spraying the plants are placed on greenhouse benches and watered and fertilized. Three weeks after spraying the plants are examined and the amount of flowering determined for all plants. Data obtained are reported in the table below as percent increase in flowering over untreated controls.
From the data reported in Table VIII below it can be seen that the compounds of the present invention applied at rates of from 0.06 to 0.25 kg/ha enhance flowering of treated plant more than 10% over untreated controls. This response is particularly desirable for treatment of flowering varieties of ornamental plants as well as agronomic crops.

Assay [4] has as its system soybeans (Glycine max) Adelphia variety. The assay can be described thus: Increasing axillary branching and improving the canopy of broad leaf plants (soybeans). Type of assay: in vivo, soybean (Glycine max). Conditions: three weeks after treatment. The source says: In these tests seedling soybean plants approximately three weeks old, and grown in plastic pots to the 2nd to 3rd trifoliate stage, are sprayed with solutions or dispersions of test compound prepared as described in Example 7 above. The same spraying apparatus, described in Example 7 above, is used and after spraying the plants are placed on greenhouse benches and watered and fertilized. Three weeks after treatment the plants are examined to determine what effect the application of test compound has had on the axillary branching and canopy development of the treated plants.
Increased axillary branching and improved canopy are biological responses which are highly advantageous in the growing of ornamental plants. These responses also have advantage in many crops since increased branching may result in the greater production of fruit, while improved canopy tends to shade and suppress the growth of undesirable weeds that compete with the crops for sunlight, water and plant nutrients. Data obtained are reported in table VII below where axillary branching and canopy are reported as percent increase over untreated controls.

The mark [5] stands for this setting: rate 0.125 kg/ha, potassium salt.
[6] abbreviates: rate 0.25 kg/ha, potassium salt.

Turning to `O=[N+]([O-])Nc1c(Br)cc(Br)cc1Br` [2,4,6-Tribromo-N--nitroaniline, sodium salt], the “% Reduction in Plant Height over untreated controls” value (from here on “% Reduction in Plant Height”) in assay [1] (rate 0.125 kg/ha, sodium salt) is given as > 35%; in assay [1] (rate 0.25 kg/ha, sodium salt), > 40%; in assay [2] (rate 0.17 kg/ha, sodium salt) it was 6.2%; in assay [2] (rate 0.50 kg/ha, sodium salt) it was 13.0%; in assay [2] (rate 1.5 kg/ha, sodium salt), 13.0%. Moreover, the “% Increase in Flowering over untreated controls” value (“% Increase in Flowering” below) in assay [3] (rate 0.5 kg/ha, sodium salt) was “normal”.

Turning to `O=[N+]([O-])Nc1c(Br)cc(Br)cc1Br` [Methyltriphenyl phosphonium salt with 2,4,6-tribromo-N--aci-] [Methyltriphenyl phosphonium salt with 2,4,6-tribromo-N--aci-nitroaniline], the “% Reduction in Plant Height” value in assay [1] (rate 0.125 kg/ha) is > 25%; in assay [1] (rate 0.25 kg/ha), > 35%; in assay [1] (rate 0.5 kg/ha) it was > 50%. Besides, in assay [3] (rate 0.125 kg/ha), the “% Increase in Flowering” value is given as “normal”. In addition, the “% Increase in Plant Canopy over untreated controls” value in assay [4] (rate 0.125 kg/ha) was “normal”. The “% Increase in axillary branching over untreated controls” value in assay [4] (rate 0.125 kg/ha) and in assay [4] (rate 0.25 kg/ha) was “normal” in each case.

On to `O=[N+]([O-])Nc1c(Br)cc(Br)cc1Br` [2,4,6-Tribromo-N--nitroaniline, potassium salt], for which the “% Reduction in Plant Height” value in assay [1] (setting [5]) is listed as > 5%; in assay [1] (setting [6]), > 5%; in assay [1] (rate 0.5 kg/ha, potassium salt), > 30%; in assay [2] (rate 0.17 kg/ha, potassium salt), 2.7%; in assay [2] (rate 0.50 kg/ha, potassium salt), 11.8%; in assay [2] (rate 1.5 kg/ha, potassium salt), 2.0%. Also, in assay [3] (rate 0.5 kg/ha, potassium salt), the “% Increase in Flowering” value is given as “normal”. Besides, the “% Increase in axillary branching over untreated controls” value in assay [4] (setting [5]) and in assay [4] (setting [6]) was “normal” throughout. For the same compound, the “% Increase in Plant Canopy over untreated controls” value in assay [4] (rate 0.5 kg/ha, potassium salt) is on record as “normal”.
